Laboratory results as given in patent US5582828A, “Active fractions of Cordyceps sinensis and method of isolation thereof” (Lin; Ching-Yuang, priority 1995, dated 1996).

Legend:
cardiovascular system = details: in vivo; cited from earlier work
[1] = system: activated human mesangial cells; test: in vitro inhibition of activated (IL-1 and IL-6) human mesangial cells, [3H]-thymidine incorporation; format: cell-based; details: Mesangial cell, n = 3, read-out: in vitro inhibitory action
Excerpt: In terms of activation of mesangial cells, [^3 H]-thymidine incorporation method is used as an index of DNA synthesis. Cultured human mesangial cells are first activated by exposing them to IL-1 and IL-6. The decrease in [^3 H]-thymidine incorporation after exposure to various fractions and compounds in Cordyceps sinensis was used as the in vitro screening method for identifying potential substances which are capable of inhibiting the proliferation of activated human mesangial cells.
Two methods of investigation (in vitro and in vivo) were adopted for the invention discussed in the patent application. One of these utilizes in vitro suppression of activated human mesangial cells as its model: the activity index used is the degree to which activation by interleukins 1 and 6 is suppressed by treatment with the fractions and purified compound H1-A of Cordyceps sinensis. Isotope-labeled [^3 H]-thymidine converted into [^3 H]-thymidine incorporation is the basis by which the degree of activation of mesangial cells is determined (please see Tables 1-1 to 1-5).

SMILES | cardiovascular effect (cardiovascular system) | inhibition at 20 µM ([1]; Table 1-5, 20 μM) | inhibition at 50 µM ([1]; Table 1-5, 50 μM) | inhibition at 75 µM ([1]; Table 1-5, 75 μM) | inhibition at 100 µM ([1]; Table 1-5, 100 μM)
Nc1ncnc2c1ncn2[C@@H]1O[C@H](CO)[C@@H](O)[C@H]1O [Adenosine] | acts to relax vascular smooth muscle and causes vasodilatation |  |  |  | 
CC[C@H](C)C(=O)O[C@H]1C[C@@H](C)C=C2C=C[C@H](C)[C@H](CC[C@@H]3C[C@@H](O)CC(=O)O3)[C@H]21 [Lovastatin, lovastatin] |  | 19.8 ± 2% | 37.1 ± 4.3% | 60.9 ± 3.8% | 73 ± 4%
